Measured values reported in patent US12054464B1, “Methyl 4-((5-(3-fluorophenyl)-4-phenyl-4H-1,2,4-triazol-3-ylthio)methyl)benzoate as an antimicrobial compound” (KING FAISAL UNIVERSITY, priority 2023, dated 2024).

Tests used:
[1] = tested on: Chrysosporium keratinophilum; assay: agar plate disc-diffusion, antifungal activity by inhibition zone; format: cell-based
Description: (§1) The agar plate disc-diffusion method was applied. Sterilized filter papers (6 mm in diameter) were wetted with 10 μL of a solution of methyl 4-((5-(3-fluorophenyl)-4-phenyl-4H-1,2,4-triazol-3-ylthio)methyl)benzoate (III) to be tested, containing 10 mg/mL in DMSO, and the discs were allowed to air dry. The discs were then placed onto the surface of agar plates (nutrient agar for bacteria and Sabouraud's dextrose agar for fungi) seeded with the test organism. Each plate contained 15 mL of the agar medium, previously seeded with 0.2 mL of the broth culture of each organism pregrown for 18 hours. The plates were incubated at 37 °C for 48 hours, and 72 hours for fungi. The inhibition zones were measured in mm. Discs impregnated with DMSO were used as a control, and its inhibition zone was subtracted from the tested compound actual inhibition zone.

[2] = tested on: Aspergillus flavus; assay: as above; format: cell-based
Description: as §1

[3] = tested on: Bacillus Cereus; assay: agar plate disc-diffusion, antibacterial activity by inhibition zone; format: cell-based; conditions: Bacillus Cereus (Gram positive)
Description: as §1

[4] = tested on: Staphylococcus aureus; assay: as above; format: cell-based; conditions: Staphylococcus aureus (Gram positive)
Description: as §1

[5] = tested on: Escherichia coli; assay: as above; format: cell-based; conditions: Escherichia coli (Gram negative)
Description: as §1

[6] = tested on: Pseudomonas aeruginosa; assay: as above; format: cell-based; conditions: Pseudomonas aeruginosa (Gram negative)
Description: as §1

[7] = A = concentration of comp. = 10,000 μL
[8] = B = concentration of comp. = 30,000 μL
[9] = C = concentration of comp. = 50,000 μL

Row | Structure (SMILES) | inhibition zone [1, 7] | inhibition zone [1, 8] | inhibition zone [1, 9] | inhibition zone [2, 7] | inhibition zone [2, 8] | inhibition zone [2, 9] | inhibition zone [3, 7] | inhibition zone [3, 8] | inhibition zone [3, 9] | inhibition zone [4, 7] | inhibition zone [4, 8] | inhibition zone [4, 9] | inhibition zone [5, 7] | inhibition zone [5, 8] | inhibition zone [5, 9] | inhibition zone [6, 7] | inhibition zone [6, 8] | inhibition zone [6, 9] | melting point
1 | O=C(O)c1cn(C2CC2)c2cc(N3CCNCC3)c(F)cc2c1=O [Cip., ciprofloxacin, reference compound] | 29 mm | 30 mm | 53 mm | 29 mm | 30 mm | 42 mm | 29 mm | 30 mm | 42 mm | 43 mm | 44 mm | 53 mm | 30 mm | 39 mm | 60 mm | 29 mm | 30 mm | 53 mm | 
2 | COC(=O)c1ccc(CSc2nnc(-c3cccc(F)c3)n2-c2ccccc2)cc1 [III, methyl 4-((5-(3-fluorophenyl)-4-phenyl-4H-1,2,4-triazol-3-ylthio)methyl)benzoate] | 28 mm | 30 mm | 49 mm | 19 mm | 24 mm | 34 mm | 28 mm | 29 mm | 40 mm | 14 mm | 20 mm | 23 mm | 29 mm | 38 mm | 54 mm | 24 mm | 33 mm | 40 mm | 185 to 186 °C
